Data on ten compounds can be found in patent US6534516B1, “Androgen receptor modulator compounds and methods” (Ligand Pharmaceuticals Incorporated, priority 1996, dated 2003).

Like-named read-outs stand apart in the source and are kept apart here.

In the test the target is T1, human AR (Homo sapiens, UniProt P10275).
T1 construct: expressed in transfected cells; host or cells: CV-1 cells (African green monkey kidney fibroblasts)
T1 sequence (P10275 1-920): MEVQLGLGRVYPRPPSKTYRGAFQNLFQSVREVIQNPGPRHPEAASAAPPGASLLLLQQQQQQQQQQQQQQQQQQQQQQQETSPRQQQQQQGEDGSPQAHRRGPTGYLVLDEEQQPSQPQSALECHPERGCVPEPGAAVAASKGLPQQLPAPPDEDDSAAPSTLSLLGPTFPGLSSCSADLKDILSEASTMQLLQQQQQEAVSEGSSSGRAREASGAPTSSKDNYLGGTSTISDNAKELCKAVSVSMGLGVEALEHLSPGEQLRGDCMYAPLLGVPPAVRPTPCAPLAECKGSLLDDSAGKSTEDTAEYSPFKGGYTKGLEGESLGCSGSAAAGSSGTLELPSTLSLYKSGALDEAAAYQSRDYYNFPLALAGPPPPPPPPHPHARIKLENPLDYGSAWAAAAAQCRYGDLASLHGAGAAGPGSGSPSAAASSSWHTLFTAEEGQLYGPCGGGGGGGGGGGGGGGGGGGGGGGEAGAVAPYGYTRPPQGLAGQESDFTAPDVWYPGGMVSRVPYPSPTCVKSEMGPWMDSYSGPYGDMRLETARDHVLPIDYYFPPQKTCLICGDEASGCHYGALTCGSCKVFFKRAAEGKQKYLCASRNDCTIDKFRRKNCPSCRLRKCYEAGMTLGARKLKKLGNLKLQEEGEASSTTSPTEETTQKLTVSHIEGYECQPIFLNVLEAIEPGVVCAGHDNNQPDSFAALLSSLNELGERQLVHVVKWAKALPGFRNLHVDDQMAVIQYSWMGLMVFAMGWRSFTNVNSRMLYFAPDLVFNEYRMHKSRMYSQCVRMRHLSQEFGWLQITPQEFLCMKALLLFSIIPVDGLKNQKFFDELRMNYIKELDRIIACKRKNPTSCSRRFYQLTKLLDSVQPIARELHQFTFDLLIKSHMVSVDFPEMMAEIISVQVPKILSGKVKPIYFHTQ
The test can be described thus: cell-based. In kind it is cell-based. To be noted: for EC50: read-out: AR Agonist CV-1 Cells Potency. From the text:
The co-transfection assay provides a method for identifying functional agonists and partial agonists which mimic, or antagonists which inhibit, the effect of native hormones, and quantifying their activity for responsive IR proteins. In this regard, the co-transfection assay mimics an in vivo system in the laboratory. Importantly, activity in the co-transfection assay correlates very well with known in vivo activity, such that the co-transfection assay functions as a qualitative and quantitative predictor of a tested compounds in vivo pharmacology. See, e.g., T. Berger et al. 41 J. Steroid Biochem. Molec.
CV-1 cells (African green monkey kidney fibroblasts) were cultured in the presence of Dulbecco's Modified Eagle Medium (DMEM) supplemented with 10% charcoal resin-stripped fetal bovine serum then transferred to 96-well microtiter plates one day prior to transfection.
The reporter plasmid, MTV-LUC, contains the cDNA for firefly luciferase (LUC) under control of the mouse mammary tumor virus (MTV) long terminal repeat, a conditional promoter containing an androgen response element. See e.g., Berger et al. supra. In addition, pRS-β-Gal, coding for constitutive expression of E. coli β-galactosidase (β-Gal), was included as an internal control for evaluation of transfection efficiency and compound toxicity.
Three to four replicates were used for each sample.
After 40 hours, the cells were washed with PBS, lysed with a Triton X-100-based buffer and assayed for LUC and β-Gal activities using a luminometer or spectrophotometer, respectively. For each replicate, the normalized response (NR) was calculated as:
where β-Gal rate=β-Gal•1×10^−5/β-Gal incubation time.

Where [1] appears, read: antagonist mode, DHT at its EC50, % of maximal inhibition, na = not active.
Where [2] appears, read: read-out: AR Antagonist CV-1 Cells Potency.

As to `Cn1c(=O)cc(C(F)(F)F)c2cc3c4c(c21)CCCN4CCC3` [Compound 13, 8-Methyl-11-(trifluoromethyl)-9-pyridono[6,5-i]julolidine], the “AR Antagonist CV-1 Cells Efficacy” value under setting [1] is on record as 84 ± 6%. For the same compound, the IC50 under setting [2] amounted to 726 ± 84 nM.

Consider `CC1=CC(C)(C)Nc2c1cc1c(C(F)(F)F)c(F)c(=O)[nH]c1c2C` [Compound 114, 7-Fluoro-1,2-dihydro-2,2,4, 10-tetramethyl-6-trifluoromethyl-8-pyridono[5,6-g]quinoline], for which, under setting [1], the “AR Antagonist CV-1 Cells Efficacy” value is reported as 90 ± 1%. Further, the IC50 under setting [2] is 203 ± 66 nM.

With `CCC1CCNc2c1cc1c(C(F)(F)F)cc(=O)[nH]c1c2[N+](=O)[O-]` (racemic) [Compound 124, (R/S)-4-Ethyl-1,2,3,4-tetrahydro-10-nitro-6-(trifluoromethyl)-8-pyridono[5,6-g]quinoline], the EC50 was 202 ± 18 nM. For the same compound, the “AR Agonist CV-1 Cells Efficacy” value (agonist mode, percent maximal response relative to reference agonist DHT, na = not active (efficacy < 10 and potency > 10,000)) came to 50 ± 1%.

For `Cc1c2c(cc3c(C(F)(F)F)c(F)c(=O)[nH]c13)C(C)CC(C)(C)N2C` (centres unmarked) [Compound 117, 7-Fluoro-1,2,3,4-tetrahydro-1,2,2,4,10-pentamethyl-6-trifluoromethyl-8-pyridono[5,6-g]quinoline], the “AR Antagonist CV-1 Cells Efficacy” value under setting [1] came out at 82 ± 1%. For the same compound, the IC50 under setting [2] was 394 ± 75 nM.

With `Cc1c2c(cc3c(C(F)(F)F)c(F)c(=O)n(C)c13)C(C)CC(C)(C)N2` (centres unmarked) [Compound 116, 7-Fluoro-1,2,3,4-tetrahydro-2,2,4,9,10-pentamethyl-6-trifluoromethyl-8-pyridono[5,6-g]quinoline], the “AR Antagonist CV-1 Cells Efficacy” value under setting [1] came to 20%. In addition, the IC50 under setting [2] turned out to be 1460 nM.

Regarding `CC1(C)CCc2cc3c(C(F)(F)F)cc(=O)[nH]c3c([N+](=O)[O-])c2N1` [Compound 125, 1,2,3,4-Tetrahydro-2,2-dimethyl-10-nitro-6-(trifluoromethyl)-8-pyridono[5,6-g]quinoline], under setting [1], the “AR Antagonist CV-1 Cells Efficacy” value amounted to 73%. For the same compound, the IC50 under setting [2] was 1340 nM.

`CC12CCCN1c1cc3[nH]c(=O)cc(C(F)(F)F)c3cc1CC2` (racemic) [Compound 101, (R/S)-6,7,7a,11-Tetrahydro-7a-methyl-4-trifluoromethyl-2-pyridono[5,6-g]pyrrolidino[1,2-a]quinoline]: the “AR Antagonist CV-1 Cells Efficacy” value was found to be 86 ± 6% and the IC50 turned out to be 325 ± 68 nM.

In the case of `CC1(C)CCc2cc3c(C(F)(F)F)c([N+](=O)[O-])c(=O)[nH]c3c([N+](=O)[O-])c2N1` [Compound 126, 1,2,3,4-Tetrahydro-2,2-dimethyl-7,10-dinitro-6-(trifluoromethyl)-8-pyridono[5,6-g]quinoline], the IC50 was 5240 ± 363 nM. Also, the “AR Antagonist CV-1 Cells Efficacy” value under setting [1] is recorded as 44 ± 2 %.

For the compound `O=c1cc(C(F)(F)F)c2cc3c4c(c2[nH]1)CCCN4CCC3` [Compound 12, 11-(Trifluoromethyl)-9-pyridono[6,5-i]julolidine], the “AR Antagonist CV-1 Cells Efficacy” value under setting [1] was 53 ± 16 %. Besides, the IC50 under setting [2] was 2370 ± 215 nM.

In the case of `CCC1CCN(C=O)c2cc3[nH]c(=O)cc(C(F)(F)F)c3cc21` (racemic) [Compound 121, (R/S)-4-Ethyl-1-formyl-1,2,3,4-tetrahydro-6-(trifluoromethyl)-8-pyridono[5,6-g]quinoline], the “AR Agonist CV-1 Cells Efficacy” value is given as 72 ± 20% and the EC50 is 150 ± 39 nM.
